According to ChEMBL document CHEMBL1201862, “PubChem BioAssay data set” (2004):
Activity calls are given as the source filed them.

How the values were obtained:
Cytochrome P450 2C9 = Cytochrome P450 2C9 (Homo sapiens, UniProt P11712); conditions: Potency
Wee1-like protein kinase = Wee1-like protein kinase (Homo sapiens, UniProt P30291); experiment: Dose Response Cell-based Assay for Inhibitors of Wee1 Degradation. [Related pubchem assays: 1410, 1321 ]; assay type: functional
[1] = target: G2/mitotic-specific cyclin-B1 (Homo sapiens, UniProt P14635); experiment: Counterscreen assay for inhibitors of Wee1 degradation: dose response cell-based assay to identify inhibitors of cyclin B degradation. [Related pubchem assays: 1410, 1321 ]; assay type: functional
[2] = target: T1, Alkaline phosphatase, tissue-nonspecific isozyme (Homo sapiens, UniProt P05186); experiment: TNAP enzyme activators, dose response, selectivity assay for mouse IAP activator project, biochemical, TNAP isozyme, mouse IAP uHTS hits (AID 488880); assay type: functional
T1 sequence (P05186 whole entry): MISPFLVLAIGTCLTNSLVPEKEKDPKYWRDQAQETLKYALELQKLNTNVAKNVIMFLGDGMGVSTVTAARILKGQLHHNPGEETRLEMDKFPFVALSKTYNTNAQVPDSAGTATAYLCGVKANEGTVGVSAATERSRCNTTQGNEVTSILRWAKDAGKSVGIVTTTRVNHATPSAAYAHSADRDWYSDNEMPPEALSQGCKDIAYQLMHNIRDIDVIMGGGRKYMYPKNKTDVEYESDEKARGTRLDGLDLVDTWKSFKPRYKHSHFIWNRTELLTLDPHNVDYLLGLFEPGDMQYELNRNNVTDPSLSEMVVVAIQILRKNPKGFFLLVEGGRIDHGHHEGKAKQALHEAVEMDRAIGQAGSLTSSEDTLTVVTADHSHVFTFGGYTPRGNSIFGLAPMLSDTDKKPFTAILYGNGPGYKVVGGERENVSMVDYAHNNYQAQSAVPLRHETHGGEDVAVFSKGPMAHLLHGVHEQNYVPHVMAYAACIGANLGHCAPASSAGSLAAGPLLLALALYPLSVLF

[3] = THP-1 cell cytotoxicity, dose response, cytotoxicity control for Vif-APOBEC3G degradation inhibitor project, THP-1 cells (AID 1117359); assay type: functional; conditions: Human immunodeficiency virus 1, THP-1
Procathepsin L = Procathepsin L (Homo sapiens, UniProt P07711)
[4] = target: Intestinal-type alkaline phosphatase (Homo sapiens, UniProt P09923); experiment: activation of human intestinal alkaline phosphatase – biochemical, dose response (AID 488873); assay type: functional
[5] = target: Intestinal-type alkaline phosphatase (Mus musculus, UniProt P24822); experiment: mouse intestinal alkaline phosphatase activators, dose response, biochemical, luminescence, uHTS hits (AID 488783); assay type: functional
Large T antigen = Large T antigen (Simian virus 40, UniProt P03070); assay type: functional, Betapolyomavirus macacae;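 also: Confirmatory-stage PubChem screen for compounds that inhibit SV40 T antigen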
Albumin = Albumin (Bos taurus, UniProt P02769); experiment: Counterscreen for inhibitors of T-cell receptor (TCR)-CD3 interaction: Fluorescence-based biochemical high throughput dose response assay to identify inhibitors of T-cell receptor (TCR)-CD3 interaction using a TAMRA-labeled BSA probe.; assay type: functional
Aspartyl aminopeptidase = target: T2, Aspartyl aminopeptidase (Plasmodium falciparum 3D7, UniProt Q8I2J3)
T2 sequence (Q8I2J3 whole entry): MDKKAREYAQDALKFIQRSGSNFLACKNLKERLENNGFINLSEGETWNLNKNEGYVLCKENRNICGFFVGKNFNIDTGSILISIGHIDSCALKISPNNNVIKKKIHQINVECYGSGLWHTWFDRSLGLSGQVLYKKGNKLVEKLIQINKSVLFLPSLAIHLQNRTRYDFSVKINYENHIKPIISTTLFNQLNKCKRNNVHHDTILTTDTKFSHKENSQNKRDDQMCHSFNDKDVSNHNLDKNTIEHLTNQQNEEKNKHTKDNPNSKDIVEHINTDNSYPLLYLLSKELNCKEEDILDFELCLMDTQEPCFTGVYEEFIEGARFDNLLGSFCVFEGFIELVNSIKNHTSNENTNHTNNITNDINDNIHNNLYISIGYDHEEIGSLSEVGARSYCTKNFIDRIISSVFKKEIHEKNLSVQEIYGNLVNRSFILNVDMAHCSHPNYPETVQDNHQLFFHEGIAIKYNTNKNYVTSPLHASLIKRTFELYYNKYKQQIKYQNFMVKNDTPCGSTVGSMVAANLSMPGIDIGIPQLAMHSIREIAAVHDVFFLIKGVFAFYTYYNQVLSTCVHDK

[6] = target: FAD-linked sulfhydryl oxidase ALR (Homo sapiens, UniProt P55789); experiment: inhibitors of human ALR sulfhydryl oxidase, dose response, biochemical, H2O2 detection, luminescence, cherry-pick (AID 493248)
[7] = target: Transitional endoplasmic reticulum ATPase (Homo sapiens, UniProt P55072, C522A); experiment: C522A mutant p97 ATPase inhibitors, dose response, counter-screen for p97 inhibitor project, biochemical, luminescence (AID 1544)
[8] = target: Transitional endoplasmic reticulum ATPase (Homo sapiens, UniProt P55072); experiment: p97 ATPase inhibitors, dose response, biochemical (AID 1534)
[9] = target: T3, Microphthalmia-associated transcription factor (Homo sapiens, UniProt O75030); experiment: TRPM1 promoter luciferase signal decrease, dose response, MITF inhibitor project, cell-based, SK-MEL-5, cherry-picked, set 3 (AID 493073); assay type: functional
T3 sequence (O75030 whole entry): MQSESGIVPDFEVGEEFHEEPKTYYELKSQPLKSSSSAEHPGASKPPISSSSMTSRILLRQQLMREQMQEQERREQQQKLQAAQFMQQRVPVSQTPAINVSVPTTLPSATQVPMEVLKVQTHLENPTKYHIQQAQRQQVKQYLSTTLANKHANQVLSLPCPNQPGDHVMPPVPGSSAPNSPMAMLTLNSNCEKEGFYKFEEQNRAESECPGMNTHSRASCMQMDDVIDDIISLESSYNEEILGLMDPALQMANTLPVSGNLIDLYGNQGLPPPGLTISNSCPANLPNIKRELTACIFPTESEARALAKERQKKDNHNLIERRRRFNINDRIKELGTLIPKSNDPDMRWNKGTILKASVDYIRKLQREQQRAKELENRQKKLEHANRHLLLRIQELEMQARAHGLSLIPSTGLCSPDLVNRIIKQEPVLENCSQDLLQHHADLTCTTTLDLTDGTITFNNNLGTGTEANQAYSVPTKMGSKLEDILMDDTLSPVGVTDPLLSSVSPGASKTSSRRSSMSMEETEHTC

Cytochrome P450 2C19 = Cytochrome P450 2C19 (Homo sapiens, UniProt P33261); experiment: qHTS Assay for Inhibitors and Substrates of Cytochrome P450 2C19. [Related pubchem assays: 410 ]; assay type: ADME; conditions: read-out: Potency
Cytochrome P450 2D6 = Cytochrome P450 2D6 (Homo sapiens, UniProt P10635); experiment: qHTS Assay for Inhibitors and Substrates of Cytochrome P450 2D6. [Related pubchem assays: 410 ]; assay type: ADME; conditions: read-out: Potency
Sequence of Cytochrome P450 2D6 (P10635 whole entry): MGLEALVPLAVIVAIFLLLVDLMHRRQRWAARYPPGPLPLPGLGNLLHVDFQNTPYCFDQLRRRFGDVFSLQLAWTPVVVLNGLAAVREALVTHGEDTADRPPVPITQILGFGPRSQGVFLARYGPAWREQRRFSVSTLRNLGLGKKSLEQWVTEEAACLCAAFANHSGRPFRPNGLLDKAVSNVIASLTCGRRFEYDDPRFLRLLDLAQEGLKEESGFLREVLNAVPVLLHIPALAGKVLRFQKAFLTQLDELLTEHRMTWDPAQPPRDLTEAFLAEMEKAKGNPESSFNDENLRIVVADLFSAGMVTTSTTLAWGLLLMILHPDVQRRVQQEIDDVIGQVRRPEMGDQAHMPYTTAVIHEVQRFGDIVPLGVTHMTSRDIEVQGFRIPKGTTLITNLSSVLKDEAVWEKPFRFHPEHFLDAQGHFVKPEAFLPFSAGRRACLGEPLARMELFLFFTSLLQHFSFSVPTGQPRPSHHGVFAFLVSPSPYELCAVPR

Sequence of Cytochrome P450 2C19 (P33261 whole entry): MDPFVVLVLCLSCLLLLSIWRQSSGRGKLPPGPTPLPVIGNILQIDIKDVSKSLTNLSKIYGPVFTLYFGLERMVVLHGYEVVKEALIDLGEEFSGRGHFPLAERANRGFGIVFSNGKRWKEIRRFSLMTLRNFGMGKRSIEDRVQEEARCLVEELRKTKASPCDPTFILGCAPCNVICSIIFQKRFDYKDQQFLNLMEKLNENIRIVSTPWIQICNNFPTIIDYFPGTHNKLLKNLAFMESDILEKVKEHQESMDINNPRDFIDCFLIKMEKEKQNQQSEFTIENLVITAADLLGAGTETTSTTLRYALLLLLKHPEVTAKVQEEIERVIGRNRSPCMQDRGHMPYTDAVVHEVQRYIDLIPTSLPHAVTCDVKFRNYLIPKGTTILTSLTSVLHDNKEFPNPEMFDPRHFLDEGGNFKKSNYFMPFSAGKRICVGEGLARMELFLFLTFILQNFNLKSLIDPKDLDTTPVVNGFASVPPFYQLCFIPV
Sequence of FAD-linked sulfhydryl oxidase ALR (P55789 whole entry): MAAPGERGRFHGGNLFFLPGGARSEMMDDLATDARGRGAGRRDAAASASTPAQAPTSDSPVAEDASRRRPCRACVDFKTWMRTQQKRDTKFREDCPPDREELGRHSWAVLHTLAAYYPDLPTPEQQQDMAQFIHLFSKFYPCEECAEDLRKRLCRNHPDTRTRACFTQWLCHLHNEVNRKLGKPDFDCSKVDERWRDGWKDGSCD
Sequence of Wee1-like protein kinase (P30291 whole entry): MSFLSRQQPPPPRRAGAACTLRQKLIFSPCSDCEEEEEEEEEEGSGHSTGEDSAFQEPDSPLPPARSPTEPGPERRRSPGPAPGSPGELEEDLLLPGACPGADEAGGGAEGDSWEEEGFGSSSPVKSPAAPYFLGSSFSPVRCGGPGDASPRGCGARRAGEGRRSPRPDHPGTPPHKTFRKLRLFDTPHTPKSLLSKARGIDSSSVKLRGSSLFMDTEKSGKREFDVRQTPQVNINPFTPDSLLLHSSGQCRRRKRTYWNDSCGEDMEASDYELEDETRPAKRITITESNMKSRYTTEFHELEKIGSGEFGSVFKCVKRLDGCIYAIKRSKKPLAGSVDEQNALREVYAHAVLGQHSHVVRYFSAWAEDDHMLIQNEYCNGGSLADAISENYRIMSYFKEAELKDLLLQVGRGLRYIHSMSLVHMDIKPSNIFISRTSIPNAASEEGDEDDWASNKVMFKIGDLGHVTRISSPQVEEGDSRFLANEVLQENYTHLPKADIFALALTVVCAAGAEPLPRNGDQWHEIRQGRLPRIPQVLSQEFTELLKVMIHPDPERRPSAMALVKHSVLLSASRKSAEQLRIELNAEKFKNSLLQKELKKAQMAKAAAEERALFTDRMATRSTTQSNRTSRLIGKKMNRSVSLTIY
Sequence of Cytochrome P450 2C9 (P11712 whole entry): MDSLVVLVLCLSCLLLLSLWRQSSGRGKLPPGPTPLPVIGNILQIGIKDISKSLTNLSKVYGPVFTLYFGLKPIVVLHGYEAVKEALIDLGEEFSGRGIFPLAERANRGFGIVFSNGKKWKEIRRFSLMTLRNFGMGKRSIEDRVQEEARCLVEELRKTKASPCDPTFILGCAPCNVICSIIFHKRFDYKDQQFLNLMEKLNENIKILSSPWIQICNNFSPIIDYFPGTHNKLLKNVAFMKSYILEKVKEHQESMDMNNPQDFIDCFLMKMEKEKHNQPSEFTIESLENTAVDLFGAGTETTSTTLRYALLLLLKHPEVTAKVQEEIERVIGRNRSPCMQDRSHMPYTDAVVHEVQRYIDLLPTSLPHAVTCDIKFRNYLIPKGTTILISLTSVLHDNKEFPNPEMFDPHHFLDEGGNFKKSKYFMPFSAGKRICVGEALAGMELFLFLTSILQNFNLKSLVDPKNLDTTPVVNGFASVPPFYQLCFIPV
Sequence of Intestinal-type alkaline phosphatase (Homo sapiens, UniProt P09923) (P09923 whole entry): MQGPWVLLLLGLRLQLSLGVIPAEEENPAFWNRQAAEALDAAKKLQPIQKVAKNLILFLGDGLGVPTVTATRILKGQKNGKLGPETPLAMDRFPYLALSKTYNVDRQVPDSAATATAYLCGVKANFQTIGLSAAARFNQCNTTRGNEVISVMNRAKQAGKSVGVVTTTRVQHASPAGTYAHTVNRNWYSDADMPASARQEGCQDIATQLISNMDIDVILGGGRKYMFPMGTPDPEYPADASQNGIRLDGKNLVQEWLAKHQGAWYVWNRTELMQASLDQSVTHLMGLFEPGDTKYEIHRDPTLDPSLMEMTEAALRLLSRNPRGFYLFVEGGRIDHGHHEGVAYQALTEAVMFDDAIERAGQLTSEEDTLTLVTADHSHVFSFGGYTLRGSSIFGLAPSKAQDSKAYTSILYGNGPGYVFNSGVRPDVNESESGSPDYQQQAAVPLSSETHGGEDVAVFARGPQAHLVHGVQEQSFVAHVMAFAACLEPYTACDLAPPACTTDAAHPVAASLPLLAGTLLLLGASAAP
Sequence of Large T antigen (P03070 whole entry): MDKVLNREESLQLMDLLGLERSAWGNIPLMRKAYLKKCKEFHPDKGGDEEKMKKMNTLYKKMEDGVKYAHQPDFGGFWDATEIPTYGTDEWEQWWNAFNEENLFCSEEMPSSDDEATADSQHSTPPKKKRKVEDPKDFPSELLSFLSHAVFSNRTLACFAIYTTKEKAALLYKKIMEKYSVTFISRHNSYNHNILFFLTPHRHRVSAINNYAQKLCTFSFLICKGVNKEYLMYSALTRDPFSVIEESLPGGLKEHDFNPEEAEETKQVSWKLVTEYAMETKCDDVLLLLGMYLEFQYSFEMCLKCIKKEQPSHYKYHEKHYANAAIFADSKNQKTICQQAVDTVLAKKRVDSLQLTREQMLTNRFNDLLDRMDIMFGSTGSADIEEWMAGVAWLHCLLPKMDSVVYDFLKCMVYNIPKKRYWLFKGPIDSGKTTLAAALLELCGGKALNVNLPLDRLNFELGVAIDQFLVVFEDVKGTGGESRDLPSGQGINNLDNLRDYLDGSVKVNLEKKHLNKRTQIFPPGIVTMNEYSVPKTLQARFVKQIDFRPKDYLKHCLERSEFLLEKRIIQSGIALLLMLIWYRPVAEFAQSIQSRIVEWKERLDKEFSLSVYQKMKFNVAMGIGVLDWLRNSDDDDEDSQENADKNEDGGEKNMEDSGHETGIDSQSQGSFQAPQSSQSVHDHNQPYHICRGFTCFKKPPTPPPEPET
Sequence of G2/mitotic-specific cyclin-B1 (P14635 whole entry): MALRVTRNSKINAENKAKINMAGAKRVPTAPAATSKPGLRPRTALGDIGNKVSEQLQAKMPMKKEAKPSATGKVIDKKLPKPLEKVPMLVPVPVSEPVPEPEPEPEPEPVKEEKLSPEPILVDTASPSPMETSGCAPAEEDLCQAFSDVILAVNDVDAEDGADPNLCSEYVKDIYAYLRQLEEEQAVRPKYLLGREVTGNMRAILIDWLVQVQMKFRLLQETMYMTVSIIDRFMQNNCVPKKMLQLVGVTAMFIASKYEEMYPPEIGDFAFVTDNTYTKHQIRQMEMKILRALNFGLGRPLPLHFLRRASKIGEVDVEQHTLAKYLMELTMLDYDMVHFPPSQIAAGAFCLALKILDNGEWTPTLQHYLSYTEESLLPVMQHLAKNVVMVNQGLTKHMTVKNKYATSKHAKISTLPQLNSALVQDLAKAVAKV
Sequence of Transitional endoplasmic reticulum ATPase (Homo sapiens, UniProt P55072) (P55072 whole entry): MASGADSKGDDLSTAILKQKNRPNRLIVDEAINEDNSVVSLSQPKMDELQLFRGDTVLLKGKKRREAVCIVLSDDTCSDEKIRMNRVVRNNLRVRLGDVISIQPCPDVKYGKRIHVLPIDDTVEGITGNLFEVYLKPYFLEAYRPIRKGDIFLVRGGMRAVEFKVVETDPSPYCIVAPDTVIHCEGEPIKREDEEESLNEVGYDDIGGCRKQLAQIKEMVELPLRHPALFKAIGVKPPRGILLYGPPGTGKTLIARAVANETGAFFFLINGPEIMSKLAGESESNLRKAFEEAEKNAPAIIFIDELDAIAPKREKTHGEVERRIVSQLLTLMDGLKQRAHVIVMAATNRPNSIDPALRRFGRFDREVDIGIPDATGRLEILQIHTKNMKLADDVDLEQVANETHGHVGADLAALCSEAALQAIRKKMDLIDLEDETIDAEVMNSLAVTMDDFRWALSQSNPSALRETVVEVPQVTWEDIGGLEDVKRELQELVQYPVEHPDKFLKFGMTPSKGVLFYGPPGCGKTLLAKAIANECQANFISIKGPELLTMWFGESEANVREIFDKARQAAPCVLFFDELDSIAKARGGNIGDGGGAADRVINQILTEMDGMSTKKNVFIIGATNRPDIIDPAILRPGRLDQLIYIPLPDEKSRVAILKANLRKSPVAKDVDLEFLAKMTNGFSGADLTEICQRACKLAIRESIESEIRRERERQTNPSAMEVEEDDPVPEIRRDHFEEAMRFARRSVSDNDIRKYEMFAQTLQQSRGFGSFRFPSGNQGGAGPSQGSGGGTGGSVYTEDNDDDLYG

With `CC(C)(C)c1ccc(OC2C(O)COC2/C=C/C#Cc2ccccc2)cc1` (configuration not stated) the AC50 (Cytochrome P450 2C9) was 5.01 µM (inconclusive).
In the case of `Cc1cc(Cl)ccc1N=C(S)Nc1ccccn1`, the EC50 (Wee1-like protein kinase) is reported as > 49.7 µM (not active) and the EC50 [1] is reported as > 49.7 µM (not active).
In the case of `Oc1ccc(/C=N/N=C/c2ccc(O)c(O)c2)cc1O`, the EC50 [2] is reported as 37.4 µM (active), the CC50 [3] is reported as 39.1 µM (active) and the IC50 (Procathepsin L) is reported as > 59.6 µM (not active). For the same molecule, the EC50 [4] was 27.3 µM (active), the EC50 [5] was 18 µM (active) and the IC50 (Large T antigen) was 1.15 µM (active). The IC50 (Albumin) was > 94.1 µM (inactive), the IC50 (Aspartyl aminopeptidase) was 1.75 µM (active) and the AC50 [6] was 0.543 µM (active).
In the case of `Cn1cc(C(=O)CCl)c2ccccc21`, the IC50 [7] is reported as > 50 µM (not active), the IC50 [8] is reported as > 50 µM (not active) and the AC50 [9] is reported as 8.48 µM (active).
With `CCN(CC)[C@@H](C)C(=O)N1c2ccccc2Sc2ccccc21` the AC50 (Cytochrome P450 2C19) was 31.6 µM (inconclusive) and the AC50 (Cytochrome P450 2D6) was 20 µM (inconclusive).
